Ki data for 3 compounds are collected here from BindingDB's records for doi:10.1021/ja058636j (Purdue University, 2006).

What all share (test): Enzyme Inhibition Measurements
What all share (conditions): pH 4.5; 37 °C

The target of one experiment is Cathepsin D (Homo sapiens, UniProt P07339). As for the experimental part:
(§1) Enzyme activities were assayed by monitoring the hydrolysis of substrate in the presence or absence of inhibitor compounds. The hydrolysis was recorded as the increase in fluorescence intensity over a 10 min time period. […] The Ki was calculated by using Ki = IC50/ (1 + [S]/Km), and a Km value determined according to Michaelis-Menten.

The target in another experiment is Beta-secretase 1 (Homo sapiens, UniProt P56817). As for the experimental part:
as §1

The target of a further experiment is T1, Beta-secretase 2 (Homo sapiens, UniProt Q9Y5Z0).
T1 sequence (Q9Y5Z0 whole entry): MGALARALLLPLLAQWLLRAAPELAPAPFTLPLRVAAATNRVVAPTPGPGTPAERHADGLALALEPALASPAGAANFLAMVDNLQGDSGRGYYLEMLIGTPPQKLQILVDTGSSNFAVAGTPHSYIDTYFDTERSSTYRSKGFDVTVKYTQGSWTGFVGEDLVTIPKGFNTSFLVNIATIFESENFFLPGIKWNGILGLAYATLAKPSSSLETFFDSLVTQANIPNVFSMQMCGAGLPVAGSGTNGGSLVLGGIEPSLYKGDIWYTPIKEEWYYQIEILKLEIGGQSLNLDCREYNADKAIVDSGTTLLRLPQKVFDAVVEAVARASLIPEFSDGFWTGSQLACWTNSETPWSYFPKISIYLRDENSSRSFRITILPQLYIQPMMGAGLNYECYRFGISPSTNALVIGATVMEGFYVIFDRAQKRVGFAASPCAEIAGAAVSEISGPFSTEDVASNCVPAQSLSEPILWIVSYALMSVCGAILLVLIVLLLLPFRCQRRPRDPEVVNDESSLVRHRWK
As for the experimental part:
as §1

Cathepsin D, sequence (P07339 65-162 limits assumed): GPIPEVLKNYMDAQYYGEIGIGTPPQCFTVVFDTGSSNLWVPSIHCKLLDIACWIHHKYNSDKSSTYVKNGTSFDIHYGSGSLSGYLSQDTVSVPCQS
Cathepsin D, sequence (P07339 169-412 limits assumed): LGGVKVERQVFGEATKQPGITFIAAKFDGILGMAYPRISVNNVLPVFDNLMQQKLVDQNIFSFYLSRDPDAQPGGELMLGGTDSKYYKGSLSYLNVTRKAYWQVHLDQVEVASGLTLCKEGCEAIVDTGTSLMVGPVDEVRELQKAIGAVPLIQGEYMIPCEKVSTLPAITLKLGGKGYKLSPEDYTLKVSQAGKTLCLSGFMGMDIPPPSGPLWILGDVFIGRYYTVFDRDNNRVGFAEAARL
Beta-secretase 1, sequence (P56817 whole entry): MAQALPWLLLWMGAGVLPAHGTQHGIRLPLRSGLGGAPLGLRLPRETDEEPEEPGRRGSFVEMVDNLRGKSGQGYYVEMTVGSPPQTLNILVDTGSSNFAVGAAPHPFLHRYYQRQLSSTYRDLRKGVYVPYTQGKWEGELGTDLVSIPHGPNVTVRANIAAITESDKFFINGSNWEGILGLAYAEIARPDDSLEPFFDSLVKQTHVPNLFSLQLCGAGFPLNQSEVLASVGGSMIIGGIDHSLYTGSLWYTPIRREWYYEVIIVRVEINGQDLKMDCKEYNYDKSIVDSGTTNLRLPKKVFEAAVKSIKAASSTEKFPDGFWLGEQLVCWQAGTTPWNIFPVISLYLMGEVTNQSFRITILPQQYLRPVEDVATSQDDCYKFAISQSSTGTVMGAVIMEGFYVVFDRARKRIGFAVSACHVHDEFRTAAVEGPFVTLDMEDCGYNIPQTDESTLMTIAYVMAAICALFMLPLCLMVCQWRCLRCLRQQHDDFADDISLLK

For `CSC[C@H](NC(=O)OCn1nc(C)cc1C)C(=O)N[C@@H](CC(C)C)[C@@H](O)C[C@@H](C)C(=O)N[C@H](C(=O)NCC(C)C)C(C)C` [(3,5-dimethyl-1H-pyrazol-1-yl)methyl N-[(1R)-1-{[(1R,3S,4S)-3-hydroxy-1,6-dimethyl-1-{[(1S)-2-methyl-1-[(2-methylpropyl)carbamoyl]propyl]carbamoyl}heptan-4-yl]carbamoyl}-2-(methylsulfanyl)ethyl]carbamate], the values for the Ki at Cathepsin D, at Beta-secretase 1 and at Beta-secretase 2 were 15 nM, 4.4 nM and 161 nM, respectively.

Turning to `CSCC[C@H](NC(=O)OCn1nc(C)cc1C)C(=O)N[C@@H](CC(C)C)[C@@H](O)C[C@@H](C)C(=O)N[C@H](C(=O)NCc1ccccc1)C(C)C` [(3,5-dimethyl-1H-pyrazol-1-yl)methyl N-[(1S)-1-{[(1R,3S,4S)-1-{[(1S)-1-(benzylcarbamoyl)-2-methylpropyl]carbamoyl}-3-hydroxy-1,6-dimethylheptan-4-yl]carbamoyl}-3-(methylsulfanyl)propyl]carbamate], the Ki at Cathepsin D worked out at 25 nM; on Beta-secretase 1, 14 nM.

For `Cc1nc(COC(=O)N[C@@H](CS(C)(=O)=O)C(=O)N[C@@H](CC(C)C)[C@@H](O)C[C@@H](C)C(=O)N[C@H](C(=O)NCC(C)C)C(C)C)c(C)o1` [N2-[(2R,4S,5S)-5-{[N-{[(2,5-dimethyl-1,3-oxazol-4-yl)methoxy]carbonyl}-3-(methylsulfonyl)-L-alanyl]amino}-4-hydroxy-2,7-dimethyloctanoyl]-N-(2-methylpropyl)-L-valinamide], the Ki is 304 nM at Cathepsin D, 0.12 nM on Beta-secretase 1 and 458 nM at Beta-secretase 2.
